Values of other authors, collected in patent publication US6331660A, “Maize DIMBOA biosynthesis genes” (Dekalb Genetics Corporation, priority 1998, dated 2001).

Target: T1, native E. coli α2β2 complex of tryptophan synthase α (TSA) and tryptophan synthase β (TSB) (Escherichia coli, UniProt P0A877)
T1 construct: by the native E. coli α2β2 complex
Conditions: conversion of indole-3-glycerol phosphate to indole, Weischet et al., 1976

T1 sequence (P0A879 2-397): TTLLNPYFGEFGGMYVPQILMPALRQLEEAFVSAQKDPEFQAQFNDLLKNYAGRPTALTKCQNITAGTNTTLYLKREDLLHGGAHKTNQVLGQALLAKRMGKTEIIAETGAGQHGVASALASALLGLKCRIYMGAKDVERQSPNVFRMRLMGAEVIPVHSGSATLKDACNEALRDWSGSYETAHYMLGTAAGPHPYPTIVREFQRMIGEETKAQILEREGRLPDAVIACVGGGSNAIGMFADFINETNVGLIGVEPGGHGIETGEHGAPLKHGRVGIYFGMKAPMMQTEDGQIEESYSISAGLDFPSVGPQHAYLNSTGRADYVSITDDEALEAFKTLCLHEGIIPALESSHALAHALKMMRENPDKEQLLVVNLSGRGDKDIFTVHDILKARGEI
T1 sequence (P0A877 whole entry): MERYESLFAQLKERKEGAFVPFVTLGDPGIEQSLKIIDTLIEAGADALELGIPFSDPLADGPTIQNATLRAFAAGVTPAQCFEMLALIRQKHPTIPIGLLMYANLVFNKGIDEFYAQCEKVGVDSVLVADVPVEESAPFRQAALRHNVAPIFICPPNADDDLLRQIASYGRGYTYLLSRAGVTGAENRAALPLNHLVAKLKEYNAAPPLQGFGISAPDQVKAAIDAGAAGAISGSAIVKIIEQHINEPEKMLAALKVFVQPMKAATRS

O=P(O)(O)OCC(O)C(O)c1c[nH]c2ccccc12 (centres unmarked) [indole-3-glycerol phosphate]
kcat: 0.2 s⁻¹ | Km (read-out: Km^indole-3-glycerol phosphate): 27 µM
